Test system: m-IMCD3 cells
Experiment: Inhibition of PGE2-stimulated in vitro cyst formation in m-IMCD3 cells (3D culture)
Type: cell-based
Conditions: Mus musculus, mIMCD3, 144 h; 3 μM; mean cyst area; 100% for (DMSO + PGE2) and 0% for DMSO control; 6 days of culture; read-out: % Cyst area* after incubation with 3 μM test compound
Procedure: HEK 293 and MDCK cells (Public Health England, Cell Culture Collections) were maintained in Dulbecco's Modified Eagle's Medium (DMEM) supplemented with 10% (v/v) fetal bovine serum (FBS) (Seralab), 2 mM L-glutamine and 100 U/mL penicillin streptomycin cocktail (ThermoFisher); termed complete media. Clonal HEK 293 cell lines were maintained in complete media supplemented with 0.6 mg/ml G418 (Enzo Life Sciences). Mouse inner medullary collecting duct (m-IMCD3) cells [American Type Culture Collection (ATCC)] were maintained in media consisting of DMEM/Hams F-12 50/50 Mix (DMEM F12; Corning) supplemented with penicillin streptomycin cocktail (100 U/mL) and FBS (10% v/v) (DMEM F12-10% FBS).
Experiment 3: Inhibition of In Vitro Cyst Formation in m-IMCD3 Cells Treated with PDE4 Long Form Activators
The mouse Inner Medullary Collecting Duct cell line (m-IMCD3) spontaneously forms cystic spheroids in 3D culture with a Type 1 collagen/Matrigel extracellular matrix. This process can be stimulated with agents which raise intracellular cAMP and is used as an in vitro model for the formation of cystic structures in the kidneys of patients with ADPKD.
Rat Collagen I (Fisher Scientific) is prepared on ice by neutralising with 1M NaOH and diluting with a 2× volume of DMEM/F12+10% FBS. This is mixed 1:1.1 with ice cold Matrigel (Corning) for coating plates (coating mix), and 1:0.93 with Matrigel for cell plating (plating mix).
The assay is conducted in the wells of a 96-well plate culture dish using a total volume of 130 μL of collagen/Matrigel/DMEM F12-10% FBS suspension in growth media for each matrix plug per individual well. Initially, 30 μL of collagen/Matrigel/DMEM F12-10% FBS (coating mix) is added into the well of a 96 well plate and the collagen is set to a gel by incubating at 37° C. for at least 15 minutes. A second layer of 100 μL collagen/Matrigel suspension (plating mix) containing m-IMCD3 cells (2.75×10^6 m-IMCD3 cells per 96-well plate) is layered over the coating mix and the collagen/Matrigel/cell mix again set to a gel by incubating at 37° C. Cell cultures are maintained at 37° C. in an atmosphere of 5% CO2, 95% air.
Between 18 and 24 h after plating, test compound(s) as DMSO stock solutions [0.1% (v/v) final DMSO concentration] and PGE2 (100 nM final concentration) in DMEM F12-10% FBS are added in quadruplicate wells per condition. Media, together with the test compound and PGE2 are replenished after 2 or 3 days. After 6 days of culture z stack images of the wells are captured using the Nikon Eclipse Ti2-E microscope. Nikon General Analysis software is used to measure the following parameters in each well: the mean cyst area, the number of cysts, and the total cyst area.
PDE4 long form activators inhibited in vitro cyst formation in m-IMCD3 cells. Data are shown in Table 4 as mean cyst area (%), compared to 100% for (DMSO+PGE2) and 0% for DMSO control.

SMILES	activity at 3 µM [%]
N#Cc1ccc(CC(=O)N2CCc3nc(N4CC5CCC(C4)N5)ncc3C2)cc1 [Example 138, 4-(2-(2-(3,8-diazabicyclo[3.2.1]octan-3-yl)-7,8-dihydropyrido[4,3-d]pyrimidin-6(5H)-yl)-2-oxoethyl)benzonitrile]	0
O=C(Cc1ccc(F)cc1)N1CCc2nc(N3CCNCC3)ncc2C1 [Example 140, 2-(4-fluorophenyl)-1-(2-(piperazin-1-yl)-7,8-dihydropyrido[4,3-d]pyrimidin-6(5H)-yl)ethan-1-one]	6
O=C(Cc1ccc(F)cc1)N1CCc2nc(N3CC4CCC(C3)N4)ncc2C1 [Example 141, 1-(2-(3,8-diazabicyclo[3.2.1]octan-3-yl)-7,8-dihydropyrido[4,3-d]pyrimidin-6(5H)-yl)-2-(4-fluorophenyl)ethan-1-one]	-2
O=C(CC1CCCC1)N1CCc2nc(N3C4CCC3CNC4)ncc2C1 [Example 142, 1-(2-(3,8-diazabicyclo[3.2.1]octan-8-yl)-7,8-dihydropyrido[4,3-d]pyrimidin-6(5H)-yl)-2-cyclopentylethan-1-one]	26
O=C(CC1CCCC1)N1CCc2nc(N3CCNCC3)ncc2C1 [Example 143, 2-cyclopentyl-1-(2-(piperazin-1-yl)-7,8-dihydropyrido[4,3-d]pyrimidin-6(5H)-yl)ethan-1-one]	22
O=C(CC1CCCCC1)N1CCc2nc(N3CCNCC3)ncc2C1 [Example 145, 2-cyclohexyl-1-(2-(piperazin-1-yl)-7,8-dihydropyrido[4,3-d]pyrimidin-6(5H)-yl)ethan-1-one]	15
CC(C)(C)CC(=O)N1CCc2nc(N3C4CCC3CNC4)ncc2C1 [Example 146, 1-(2-(3,8-diazabicyclo[3.2.1]octan-8-yl)-7,8-dihydropyrido[4,3-d]pyrimidin-6(5H)-yl)-3,3-dimethylbutan-1-one]	22
O=C(CC1CCCC1)N1CCc2cnc(N3C4CCC3CNC4)nc2C1 [Example 148, 1-(2-(3,8-diazabicyclo[3.2.1]octan-8-yl)-5,8-dihydropyrido[3,4-d]pyrimidin-7 (6H)-yl)-2-cyclopentylethan-1-one]	7
CC(C)(C)CC(=O)N1CCc2nc(N3CCNCC3)ccc2C1 [Example 149, 3,3-dimethyl-1-(2-(piperazin-1-yl)-7,8-dihydro-1,6-naphthyridin-6(5H)-yl) butan-1-one]	11
O=C(CC1CCCC1)N1CCc2nc(N3CC4CCC3CN4)ccc2C1 (centres unmarked) [Example 153, 1-(2-(2,5-diazabicyclo[2.2.2]octan-2-yl)-7,8-dihydro-1,6-naphthyridin-6(5H)-yl)-2-cyclopentylethan-1-one]	2
O=C(CC1CCCC1)N1CCc2nc(N3CC4CCC(C3)N4)ccc2C1 [Example 154, 1-(2-(3,8-diazabicyclo[3.2.1]octan-3-yl)-7,8-dihydro-1,6-naphthyridin-6(5H)-yl)-2-cyclopentylethan-1-one]	-6
O=C(CC1CCCC1)N1CCc2nc(N3C4CNCC3CC(O)C4)ccc2C1 (centres unmarked) [Example 157, 2-cyclopentyl-1-(2-(7-hydroxy-3,9-diazabicyclo[3.3.1]nonan-9-yl)-7,8-dihydro-1,6-naphthyridin-6(5H)-yl)ethan-1-one]	10
CCN1CCN(c2ccc3c(n2)CCN(S(=O)(=O)Cc2ccc(F)cc2)C3)CC1 [Example 161, 2-(4-ethylpiperazin-1-yl)-6-((4-fluorobenzyl)sulfonyl)-5,6,7,8-tetrahydro-1,6-naphthyridine]	0
O=S(=O)(Cc1ccccc1)N1CCc2nc(N3CCNCC3)ccc2C1 [Example 164, 6-(benzylsulfonyl)-2-(piperazin-1-yl)-5,6,7,8-tetrahydro-1,6-naphthyridine]	0
CCN1CCN(c2ccc3c(n2)CCN(S(=O)(=O)Cc2ccccc2)C3)CC1 [Example 165, 6-(benzylsulfonyl)-2-(4-ethylpiperazin-1-yl)-5,6,7,8-tetrahydro-1,6-naphthyridine]	-1
CCN1CC2CCC(C1)N2c1ccc2c(n1)CCN(C(=O)N[C@H]1CCOc3ccccc31)C2 [Example 167, N—((S)-chroman-4-yl)-2-(3-ethyl-3,8-diazabicyclo[3.2.1]octan-8-yl)-7,8-dihydro-1,6-naphthyridine-6(5H)-carboxamide]	-8
O=C(N[C@H]1CCOc2ccccc21)N1CCc2nc(N3CCNCC3)ccc2C1 [Example 168, (S)—N-(chroman-4-yl)-2-(piperazin-1-yl)-7,8-dihydro-1,6-naphthyridine-6(5H)-carboxamide]	4
CCN1CCN(c2ccc3c(n2)CCN(C(=O)N[C@H]2CCOc4ccccc42)C3)CC1 [Example 169, (S)—N-(chroman-4-yl)-2-(4-ethylpiperazin-1-yl)-7,8-dihydro-1,6-naphthyridine-6(5H)-carboxamide]	-4
CCN1CC2CCC(C1)N2c1ccc2c(n1)CCN(C(=O)N[C@@H]1CCOc3ccccc31)C2 [Example 170, N—((R)-chroman-4-yl)-2-(3-ethyl-3,8-diazabicyclo[3.2.1]octan-8-yl)-7,8-dihydro-1,6-naphthyridine-6(5H)-carboxamide]	23
CCN1CC2CCC(C1)N2c1ccc2c(n1)CCN(C(=O)COc1ccc(F)cc1)C2 [Example 171, 1-(2-(3-ethyl-3,8-diazabicyclo[3.2.1]octan-8-yl)-7,8-dihydro-1,6-naphthyridin-6(5H)-yl)-2-(4-fluorophenoxy)ethan-1-one]	4
CCCN1CC2CCC(C1)N2c1ccc2c(n1)CCN(C(=O)COc1ccc(F)cc1)C2 [Example 172, 2-(4-fluorophenoxy)-1-(2-(3-propyl-3,8-diazabicyclo[3.2.1]octan-8-yl)-7,8-dihydro-1,6-naphthyridin-6(5H)-yl)ethan-1-one]	6
COCCN1CC2CCC(C1)N2c1ccc2c(n1)CCN(C(=O)COc1ccc(F)cc1)C2 [Example 173, 2-(4-fluorophenoxy)-1-(2-(3-(2-methoxyethyl)-3,8-diazabicyclo[3.2.1]octan-8-yl)-7,8-dihydro-1,6-naphthyridin-6(5H)-yl)ethan-1-one]	3
COCCCN1CC2CCC(C1)N2c1ccc2c(n1)CCN(C(=O)COc1ccc(F)cc1)C2 [Example 174, 2-(4-fluorophenoxy)-1-(2-(3-(3-methoxypropyl)-3,8-diazabicyclo[3.2.1]octan-8-yl)-7,8-dihydro-1,6-naphthyridin-6(5H)-yl)ethan-1-one]	1
O=C(Cc1ccccc1)N1CCc2nc(N3CCNCC3)ccc2C1 [Example 175, 2-phenyl-1-(2-(piperazin-1-yl)-7,8-dihydro-1,6-naphthyridin-6(5H)-yl)ethan-1-one]	2
O=C(Cc1ccc(F)cc1)N1CCc2nc(N3CCNCC3)ccc2C1 [Example 176, 2-(4-fluorophenyl)-1-(2-(piperazin-1-yl)-7,8-dihydro-1,6-naphthyridin-6(5H)-yl)ethan-1-one]	-2
O=C(CC1CCCC1)N1CCc2cc(N3C4CCC3CNC4)cnc2C1 [Example 177, 1-(3-(3,8-diazabicyclo[3.2.1]octan-8-yl)-5,8-dihydro-1,7-naphthyridin-7 (6H)-yl)-2-cyclopentylethan-1-one]	10
O=C(CC1CCCC1)N1CCc2cc(N3C4CCC3CNC4)ncc2C1 [Example 178, 1-(6-(3,8-diazabicyclo[3.2.1]octan-8-yl)-3,4-dihydro-2,7-naphthyridin-2 (1H)-yl)-2-cyclopentylethan-1-one]	1
O=C(CC1CCCC1)N1CCc2cnc(N3C4CCC3CNC4)cc2C1 [Example 179, 1-(7-(3,8-diazabicyclo[3.2.1]octan-8-yl)-3,4-dihydro-2,6-naphthyridin-2 (1H)-yl)-2-cyclopentylethan-1-one]	1
O=C(COc1ccc(F)cc1)N1CCc2nc(N3CCNCC3)ccc2C1 [Example 180, 2-(4-fluorophenoxy)-1-(2-(piperazin-1-yl)-7,8-dihydro-1,6-naphthyridin-6(5H)-yl)ethan-1-one]	11

— patent US20260001876A1, “Compounds and Their Use as PDE4 Activators” (Mironid Limited, priority 2022, published 2026)
